Laboratory results from patent US20250206761A1, “HALOINDOLE MACROCYCLIC COMPOUNDS FOR THE TREATMENT OF CANCER” (Hoffmann-La Roche Inc., priority 2022, published 2025).
Like-named read-outs stand apart in the source and are kept apart here.

Columns and labels:
[1] = ester bond, EDCI/HOBt/DIEA, DCM
[2] = test system: phosphorylation of ERK, KRAS G12C in NCJ-H358 cells; assay: pERK inhibition assay, KRAS G12C; format: cell-based, human; details: Homo sapiens, 4 hours
In short: (§1)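 Cells in RPMI-1640 with 10% FBS were plated overnight (NCJ-H358 30,000, AGS 20,000, SW620 30,000 cells/well), then exposed to compounds in 0.5% DMSO for 4 h. Fixed, methanol-permeabilized cells were probed for pERK by HRP-based in-cell ELISA with TMB, OD450; IC50 from 4-parameter sigmoidal fit.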

KRAS G12C-BRAF complex [3] = biological target: T1, KRAS G12C-BRAF complex (Homo sapiens (Human), UniProt P01116+P62937, G12C); assay: KRAS G12C-BRAF NanoBit assay; format: cell-based; details: HEK293 cells, 3 hours of incubation
T1 sequence (P01116-2 other isoform, or with tags, fused parts or gaps G12C): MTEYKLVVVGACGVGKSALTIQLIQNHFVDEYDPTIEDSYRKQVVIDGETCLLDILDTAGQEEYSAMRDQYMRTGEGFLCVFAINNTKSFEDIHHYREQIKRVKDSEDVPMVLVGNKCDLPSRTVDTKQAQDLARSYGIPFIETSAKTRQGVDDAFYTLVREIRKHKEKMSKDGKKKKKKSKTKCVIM
T1 sequence (P62937 whole entry): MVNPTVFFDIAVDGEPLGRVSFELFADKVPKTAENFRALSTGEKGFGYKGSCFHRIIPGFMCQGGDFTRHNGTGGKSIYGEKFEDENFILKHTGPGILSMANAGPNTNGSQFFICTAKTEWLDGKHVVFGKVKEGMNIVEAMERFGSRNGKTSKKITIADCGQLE
Method: This assay is to measure the ability of tested compounds in disruption of the KRAS G12C-BRAF complex at the cellular level, we established the NanoBit cellular assay in mammalian HEK293 (ATCC) cells.
HEK293 cells were grown and maintained using DMEM medium (Thermo Fisher Scientific) with 10% fetal bovine serum and 1% penicillin/streptomycin. Both KRAS G12C and BRAF RBD were cloned into the NanoBit vectors ([…] vectors system, Promega) with the orientations SnmBit-KRAS G12C and BRAF RBD-LgBit, respectively, and co-transfected into HEK293 cells. Cells were then selected with 100 μg/mL Hygromycin B (10687010, Thermo Fisher) and Blasticidin (5 μg/mL) for 4 weeks to get the stable cell pool.
On the day of the assay, 75 nL of compound solution was presented in a 384-well assay plate as a 16-point 3-fold dilution starting from a final concentration of 30 μM in DMSO. Then cells were seeded at 10,000 cells/25 μL/well in a 384-well plate. After 3 hours of incubation, 6 μL of volume of Nano-Glo® Live Cell Substrate (Promega) was added into each well. Monitor luminescence using ultra384 model in Envision at 20 minutes. Compounds that facilitate disruption of the KRAS G12C-BRAF RBD complex were identified as those eliciting a decrease of luminescence relative to DMSO control wells.

[4] = test system: phosphorylation of ERK, KRAS G12V in SW620; assay: pERK inhibition assay, KRAS G12V; format: cell-based, human; details: Homo sapiens, SW-620, SW620, 4 hours
In short: as §1

[5] = test system: cryopreserved suspension hepatocytes from human; assay: Human hepatocyte stability assay; format: in vitro ADME; details: for Clearance Category: human hepatocytes; for CL_hep (Human): human hepatocytes 1×10^6 cells/mL, 37° C.
Method: The hepatocyte stability assay measures the rate of disappearance of a compound from incubations with cryopreserved suspension hepatocytes from human. Positive controls, including Midazolam, Raloxifene and Dextromethorphan, are included in every experiment. Incubations consist of […] tested compound and suspension of human hepatocytes (1×10^6 cells/mL) in supplemented Williams' E Medium with 10% FBS and 0.5% Penicillin-streptomycin. The hepatocyte suspension was incubated with intermittent shaking 900 rpm at 37° C., in a 5% CO2 incubator. The reaction was stopped by adding methanol containing internal standard (2 μM Tolbutamide) at 2, 10, 20, 40, 60 and 120 minutes after compound addition, depletion of the parent compound was monitored by LC-MS/MS analysis.

[6] = biological target: KRAS G12D binding to BRAF (Homo sapiens (Human), UniProt P01116+P62937, G12D); assay: KRAS-BRAF with CYPA (500 nM) interaction assay (TR-FRET), G12D; format: biochemical
KRAS G12D binding to BRAF, sequence (P01116-2 other isoform, or with tags, fused parts or gaps G12D): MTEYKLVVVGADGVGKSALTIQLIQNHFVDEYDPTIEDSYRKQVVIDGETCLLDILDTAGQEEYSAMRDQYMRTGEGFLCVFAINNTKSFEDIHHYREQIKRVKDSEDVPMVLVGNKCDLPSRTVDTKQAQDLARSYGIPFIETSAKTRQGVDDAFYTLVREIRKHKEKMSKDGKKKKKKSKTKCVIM
KRAS G12D binding to BRAF, sequence (P62937 whole entry): as the sequence (P62937 whole entry) above

[7] = biological target: KRAS G12V binding to BRAF (Homo sapiens (Human), UniProt P01116+P62937, G12V); assay: KRAS-BRAF with CYPA (500 nM) interaction assay (TR-FRET), G12V; format: biochemical
KRAS G12V binding to BRAF, sequence (P01116-2 other isoform, or with tags, fused parts or gaps G12V): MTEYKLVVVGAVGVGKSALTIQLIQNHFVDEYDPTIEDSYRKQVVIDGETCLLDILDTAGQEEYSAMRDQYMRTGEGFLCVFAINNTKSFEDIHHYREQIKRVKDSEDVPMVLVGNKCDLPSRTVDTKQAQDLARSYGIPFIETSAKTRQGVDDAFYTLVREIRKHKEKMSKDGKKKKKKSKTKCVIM
KRAS G12V binding to BRAF, sequence (P62937 whole entry): as the sequence (P62937 whole entry) above
In short: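 A TR-FRET assay measured how compound, in the presence of CYPA, disrupts binding of GMPPNP-loaded 6His-KRAS G12V to BRAF. The buffer contained 25 mM HEPES PH=7.4, 0.002% Tween20, 0.1% BSA, 100 mM NaCl, 5 mM MgCl2 and 10 μM GMPPNP. Compounds ran as a 16-point 3-fold dilution series from 10 μM for 3 hours.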

KRAS G12C-BRAF complex [8] = biological target: T1, KRAS G12C-BRAF complex; assay: KRAS-BRAF with CYPA (500 nM) interaction assay (TR-FRET), G12C; format: biochemical
[9] = test system: phosphorylation of ERK, KRAS G12D in AGS cells; assay: pERK inhibition assay, KRAS G12D; format: cell-based, human; details: Homo sapiens, 4 hours
In short: as §1

SW620 (ATCC-CCL-227) = assay: Cell viability assay, G12V (SW620); format: cell-based, human; details: Homo sapiens, SW-620; KRAS cell viability, SW620, 72 hrs, Cell Counting Kit-8
In short: (§2)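 Cells were seeded at 5,000 cells/well (NCI-H358) or 2,000 cells/well (AGS, SW620), incubated overnight, then treated with compounds in 0.5% DMSO final for 72 hrs. CCK-8 was added and OD450 minus OD650 read after 2 hrs; IC50 came from a 4-parameter sigmoidal fit.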

[10] = test system: NCI-H358 (ATCC-CRL5807) cells; assay: Cell viability assay, G12C (NCI-H358); format: cell-based, human; details: Homo sapiens; KRAS cell viability, NCI-H358, 72 hrs, Cell Counting Kit-8
In short: as §2

[11] = test system: AGS (ATCC-CRL-1739) cells; assay: Cell viability assay, G12D (AGS); format: cell-based, human; details: Homo sapiens, KRAS cell viability, 72 hrs, Cell Counting Kit-8
In short: as §2

Row | SMILES | ring closure, yield of all isomers ([1]; from CO[C@@H](C)c1ncc(N2CCOCC2)cc1-c1c(CC(C)(C)CO)c2cc(-c3csc(C[C@H](NC(=O)OC(C)(C)C)C(=O)N4CCC[C@@H](C(=O)O)N4)n3)c(F)cc2n1CC(F)(F)F, 12.0 mM, 20.0 °C, 15.0 h) [%] | ring closure, yield of all isomers ([1]; from CO[C@@H](C)c1ncc(N2CCN(C(=O)OCc3ccccc3)CC2)cc1-c1c(CC(C)(C)CO)c2cc(-c3cc(C[C@H](NC(=O)OC(C)(C)C)C(=O)N4CCC[C@@H](C(=O)O)N4)cc(O[Si](C(C)C)(C(C)C)C(C)C)c3)c(F)cc2n1CC(F)(F)F, 8.33 mM, 15.0 °C, 12.0 h) [%] | IC50 [2] [nM] | IC50 (KRAS G12C-BRAF complex [3]) [nM] | IC50 [4] [nM] | Clearance Category [5] | CL_hep (Human) [5] [mL/min/kg] | IC50 [6] [nM] | IC50 [7] [nM] | IC50 (KRAS G12C-BRAF complex [8]) [nM] | IC50 [9] [nM] | IC50 (SW620 (ATCC-CCL-227)) [nM] | IC50 [10] [nM] | IC50 [11] [nM]
1 | CO[C@@H](C)c1ncc(N2CCOCC2)cc1-c1c2c3cc(c(F)cc3n1CC(F)(F)F)-c1csc(n1)C[C@H](NC(=O)OC(C)(C)C)C(=O)N1CCC[C@H](N1)C(=O)OCC(C)(C)C2 | 81.3 | – | – | – | – | – | – | – | – | – | – | – | – | –
2 | CO[C@@H](C)c1ncc(N2CCN(C(=O)OCc3ccccc3)CC2)cc1-c1c2c3cc(c(F)cc3n1CC(F)(F)F)-c1cc(cc(O[Si](C(C)C)(C(C)C)C(C)C)c1)C[C@H](NC(=O)OC(C)(C)C)C(=O)N1CCC[C@H](N1)C(=O)OCC(C)(C)C2 | – | 74.2 | – | – | – | – | – | – | – | – | – | – | – | –
3 | CC(C)[C@@H](C(=O)N[C@H]1Cc2cc(O)cc(c2)-c2ccc3c(C(C)(C)C#N)cn(c3c2)CC(C)(C)COC(=O)[C@@H]2CCCN(N2)C1=O)N1CCC2(CN(C(=O)[C@H](F)Cl)C2)C1=O [RM44-A, reference compound] | – | – | > 10000 | 1150 | > 10000 | low (CL_hep (mL/min/kg)<6.96 is low clearance) | <2.4 | > 10000 | > 10000 | 779 | > 10000 | – | – | –
4 | CO[C@@H](C)c1ncc(N2CCN(C)CC2)cc1-c1c2c3cc(c(F)cc3n1CC(F)(F)F)-c1csc(n1)C[C@H](NC(=O)[C@H](C(C)C)N1CC[C@@]3(CCN(C(=O)[C@H](F)Cl)C3)C1=O)C(=O)N1CCC[C@H](N1)C(=O)OCC(C)(C)C2 (atropisomer, axis not shown; (M)) [Example 4, (2S)-2-[(5R)-7-[(2R)-2-chloro-2-fluoro-acetyl]-1-oxo-2,7-diazaspiro[4.4]nonan-2-yl]-N-[(7S,13S)-24-fluoro-(20M)-20-[2-[(1S)-1-methoxyethyl]-5-(4-methylpiperazin-1-yl)-3-pyridyl]-17,17-dimethyl-8,14-dioxo-21-(2,2,2-trifluoroethyl)-15-oxa-4-thia-9,21,27,28-tetrazapentacyclo[17.5.2.1^2,5.1^9,13.0^22,26]octacosa-1(25),2,5(28),19,22(26),23-hexaen-7-yl]-3-methyl-butanamide] | – | – | 2 | – | 48 | low (CL_hep (mL/min/kg)<6.96 is low clearance) | 6.4 | 4370 | > 10000 | 122 | 110 | 635 | 2 | 1280
